Reference: patent US20130059362A1, “BIOSENSORS COMPRISING PROTEIN-BINDING DOMAINS AND FLUORESCENT PROTEINS” (SIGMA-ALDRICH CO., LLC, priority 2010, published 2013)

Tested on: EGFR
Experiment: Ligand activation of EGFR monitored by relocalization of the 2×(SH2)Grb2 biosensor in live cells
Type: cell-based, human
Conditions: 100 ng/mL; much less than EGF
Protocol: The nucleic acid encoding TagGFP-2×(SH2)Grb2 was cloned into a lentiviral vector. Lentiviral particles were prepared and used to stably transfect A549 cells with the TagGFP:2×(SH2)Grb2 biosensor.
The cell nuclei were labeled with 1 μM DRAQ5.
A variety of other ligands were tested for their ability to activate EGFR, as monitored by the SH2 biosensor. […] Most of the ligands were tested for activity with the TagGFP:2×(SH2)Grb2 biosensor in live cells. […]

HGF: a growth factor that binds HGFR
Activity (relocalization of the SH2 biosensor): showed activity
